Measured values: ChEMBL document CHEMBL2440076, “New triarylpyrazoles as broad-spectrum anticancer agents: design, synthesis, and biological evaluation” (Eur J Med Chem, 2013)

Columns and labels:
A549 = experiment: Growth inhibition of human A549/ATCC cells assessed as cell growth at 10 uM after 48 hrs by sulforhodamine B assay; format: functional; conditions: A549, 48 h, read-out: Activity
ACHN = experiment: Growth inhibition of human ACHN cells after 48 hrs by sulforhodamine B assay; format: functional; conditions: for CC50: read-out: LC50 (the source's name)
PC-3 = experiment: Growth inhibition of human PC3 cells assessed as cell growth at 10 uM after 48 hrs by sulforhodamine B assay; format: functional; conditions: PC-3, 48 h, read-out: Activity
SR = experiment: Growth inhibition of human SR cells after 48 hrs by sulforhodamine B assay; format: functional; conditions: for CC50: read-out: LC50 (the source's name)
RPMI-8226 = experiment: Growth inhibition of human RPMI8226 cells assessed as cell growth at 10 uM after 48 hrs by sulforhodamine B assay; format: functional; conditions: RPMI-8226, 48 h, read-out: Activity
RXF 393 = experiment: Growth inhibition of human RXF393 cells after 48 hrs by sulforhodamine B assay; format: functional; conditions: RXF 393, 48 h
SK-MEL-5 [1] = experiment: Growth inhibition of human SK-MEL-5 cells assessed as cell growth at 10 uM after 48 hrs by sulforhodamine B assay; format: functional; conditions: SK-MEL-5, 48 h, read-out: Activity
SN12C = experiment: Growth inhibition of human SN12C cells assessed as cell growth at 10 uM after 48 hrs by sulforhodamine B assay; format: functional; conditions: read-out: Activity
SK-MEL-28 = experiment: Growth inhibition of human SK-MEL-28 cells assessed as cell growth at 10 uM after 48 hrs by sulforhodamine B assay; format: functional; conditions: SK-MEL-28, 48 h, read-out: Activity
CAKI-1 [2] = experiment: Growth inhibition of human CAKI-1 cells assessed as cell growth at 10 uM after 48 hrs by sulforhodamine B assay; format: functional; conditions: CAKI-1, 48 h, read-out: Activity
KM12 [3] = experiment: Growth inhibition of human KM12 cells after 48 hrs by sulforhodamine B assay; format: functional, cell-based; conditions: KM12, 48 h; for CC50: read-out: LC50 (the source's name)
CCRF-CEM = experiment: Growth inhibition of human CCRF-CEM cells after 48 hrs by sulforhodamine B assay; format: functional
HOP-62 = experiment: Growth inhibition of human HOP62 cells assessed as cell growth at 10 uM after 48 hrs by sulforhodamine B assay; format: functional; conditions: HOP-62, 48 h, read-out: Activity
HOP-92 = experiment: Growth inhibition of human HOP92 cells assessed as cell growth at 10 uM after 48 hrs by sulforhodamine B assay; format: functional; conditions: HOP-92, 48 h, read-out: Activity
A498 = experiment: Growth inhibition of human A498 cells after 48 hrs by sulforhodamine B assay; format: functional, cell-based; conditions: A498, 48 h; for CC50: read-out: LC50 (the source's name)
Malme-3M = experiment: Growth inhibition of human MALME-3M cells assessed as cell growth at 10 uM after 48 hrs by sulforhodamine B assay; format: functional; conditions: read-out: Activity
NCI-H23 [4] = experiment: Growth inhibition of human NCI-H23 cells assessed as cell growth at 10 uM after 48 hrs by sulforhodamine B assay; format: functional; conditions: NCI-H23, 48 h, read-out: Activity
NCI-H522 = experiment: Growth inhibition of human NCI-H522 cells after 48 hrs by sulforhodamine B assay; format: functional; conditions: NCI-H522, 48 h
UACC-257 = experiment: Growth inhibition of human UACC257 cells after 48 hrs by sulforhodamine B assay; format: functional; conditions: UACC-257, 48 h; for CC50: read-out: LC50 (the source's name)
OVCAR-8 = experiment: Growth inhibition of human OVCAR8 cells after 48 hrs by sulforhodamine B assay; format: functional; conditions: OVCAR-8, 48 h; for CC50: read-out: LC50 (the source's name)
CAKI-1 [5] = experiment: Growth inhibition of human CAKI-1 cells after 48 hrs by sulforhodamine B assay; format: functional; conditions: CAKI-1, 48 h; for CC50: read-out: LC50 (the source's name)
HT-29 [6] = experiment: Growth inhibition of human HT-29 cells assessed as cell growth at 10 uM after 48 hrs by sulforhodamine B assay; format: functional; conditions: HT-29, 48 h, read-out: Activity
KM12 [7] = experiment: Growth inhibition of human KM12 cells assessed as cell growth at 10 uM after 48 hrs by sulforhodamine B assay; format: functional; conditions: KM12, 48 h, read-out: Activity
HT-29 [8] = experiment: Growth inhibition of human HT-29 cells after 48 hrs by sulforhodamine B assay; format: functional; conditions: HT-29, 48 h; for CC50: read-out: LC50 (the source's name)
BT-549 = experiment: Growth inhibition of human BT549 cells assessed as cell growth at 10 uM after 48 hrs by sulforhodamine B assay; format: functional; conditions: BT-549, 48 h, read-out: Activity
MCF7 = experiment: Growth inhibition of human MCF7 cells after 48 hrs by sulforhodamine B assay; format: functional; conditions: MCF7, 48 h
OVCAR-5 = experiment: Growth inhibition of human OVCAR5 cells after 48 hrs by sulforhodamine B assay; format: functional; conditions: OVCAR-5, 48 h
TK-10 = experiment: Growth inhibition of human TK10 cells assessed as cell growth at 10 uM after 48 hrs by sulforhodamine B assay; format: functional; conditions: TK-10, 48 h, read-out: Activity
NCI-H23 [9] = experiment: Growth inhibition of human NCI-H23 cells after 48 hrs by sulforhodamine B assay; format: functional; conditions: NCI-H23, 48 h
SK-MEL-5 [10] = experiment: Growth inhibition of human SK-MEL-5 cells after 48 hrs by sulforhodamine B assay; format: functional; conditions: SK-MEL-5, 48 h
U-251 [11] = experiment: Growth inhibition of human U251 cells after 48 hrs by sulforhodamine B assay; format: functional; conditions: U-251, 48 h
OVCAR-4 = experiment: Growth inhibition of human OVCAR4 cells after 48 hrs by sulforhodamine B assay; format: functional; conditions: OVCAR-4, 48 h
SW-620 [12] = experiment: Growth inhibition of human SW620 cells assessed as cell growth at 10 uM after 48 hrs by sulforhodamine B assay; format: functional; conditions: SW-620, 48 h, read-out: Activity
U-251 [13] = experiment: Growth inhibition of human U251 cells assessed as cell growth at 10 uM after 48 hrs by sulforhodamine B assay; format: functional; conditions: U-251, 48 h, read-out: Activity
SW-620 [14] = experiment: Growth inhibition of human SW620 cells after 48 hrs by sulforhodamine B assay; format: functional; conditions: SW-620, 48 h; for CC50: read-out: LC50 (the source's name)

## O=C(Nc1cccc(-n2cc(-c3ccncc3)c(-c3ccc(Cl)c(O)c3)n2)c1)Nc1ccc(Cl)c(C(F)(F)F)c1
A549
  growth at 10 µM: -21.3%
ACHN
  GI50: 0.913 µM
  TGI: > 32.5 µM
  CC50: > 32.5 µM
PC-3
  growth at 10 µM: -10.4%
SR
  GI50: 0.715 µM
  TGI: 2.52 µM
  CC50: > 32.5 µM
RPMI-8226
  growth at 10 µM: -10.5%
RXF 393
  GI50: 0.508 µM
  LC50 (concentration killing 50% of cells): > 32.5 µM
  TGI: 1.67 µM
SK-MEL-5 [1]
  growth at 10 µM: -100%
SN12C
  growth at 10 µM: 7.46%
SK-MEL-28
  growth at 10 µM: -31.5%
CAKI-1 [2]
  growth at 10 µM: 17.3%
KM12 [3]
  GI50: 1 µM
  TGI: 3.51 µM
  CC50: 17.4 µM
CCRF-CEM
  GI50: 0.719 µM
  LC50: > 32.5 µM
  TGI: 2.7 µM
HOP-62
  growth at 10 µM: -17%
HOP-92
  growth at 10 µM: -30.7%
A498
  GI50: 1.4 µM
  IC50: 1.4 µM
  TGI: 6.9 µM
  CC50: > 32.5 µM
Malme-3M
  growth at 10 µM: -16.6%
NCI-H23 [4]
  growth at 10 µM: -25.8%
NCI-H522
  GI50: 0.72 µM
  LC50 (concentration killing 50% of cells): 24.5 µM
  TGI: 2.5 µM
UACC-257
  GI50: 0.768 µM
  TGI: 2.1 µM
  CC50: 8.39 µM
OVCAR-8
  GI50: 0.759 µM
  TGI: 2.28 µM
  CC50: > 32.5 µM
CAKI-1 [5]
  GI50: 0.795 µM
  TGI: 2.63 µM
  CC50: > 32.5 µM
HT-29 [6]
  growth at 10 µM: -6.5%
KM12 [7]
  growth at 10 µM: -27.3%
HT-29 [8]
  GI50: 1.28 µM
  TGI: 5.73 µM
  CC50: 22.6 µM
BT-549
  growth at 10 µM: 1.33%
MCF7
  GI50: 0.663 µM
  LC50: > 32.5 µM
  TGI: > 32.5 µM
OVCAR-5
  GI50: 1.57 µM
  LC50 (concentration killing 50% of cells): > 32.5 µM
  TGI: 16.2 µM
TK-10
  growth at 10 µM: -1.62%
NCI-H23 [9]
  GI50: 0.951 µM
  LC50: 26.1 µM
  TGI: 3.33 µM
SK-MEL-5 [10]
  GI50: 0.55 µM
  LC50 (concentration killing 50% of cells): 2.13 µM
  TGI: 1.08 µM
U-251 [11]
  GI50: 0.548 µM
  LC50 (concentration killing 50% of cells): 2.74 µM
  TGI: 1.23 µM
OVCAR-4
  GI50: 1.2 µM
  LC50 (concentration killing 50% of cells): > 32.5 µM
  TGI: > 32.5 µM
SW-620 [12]
  growth at 10 µM: -19.7%
U-251 [13]
  growth at 10 µM: -70.4%
SW-620 [14]
  GI50: 1.15 µM
  TGI: 4.16 µM
  CC50: > 32.5 µM

## COc1cc(-c2nn(-c3cccc(NC(=O)c4ccc(Cl)c(C(F)(F)F)c4)c3)cc2-c2ccncc2)ccc1Cl
A549
  growth at 10 µM: 23.3%
ACHN
  GI50: 2.73 µM
  TGI: > 32.5 µM
  CC50: > 32.5 µM
PC-3
  growth at 10 µM: 18.6%
SR
  GI50: 0.848 µM
  TGI: > 32.5 µM
  CC50: > 32.5 µM
RPMI-8226
  growth at 10 µM: 25.4%
RXF 393
  GI50: 1.76 µM
  LC50 (concentration killing 50% of cells): > 32.5 µM
  TGI: 18.7 µM
SK-MEL-5 [1]
  growth at 10 µM: 17.5%
SN12C
  growth at 10 µM: 57.3%
SK-MEL-28
  growth at 10 µM: 41.6%
CAKI-1 [2]
  growth at 10 µM: 61.1%
KM12 [3]
  GI50: 2.06 µM
  TGI: > 32.5 µM
  CC50: > 32.5 µM
CCRF-CEM
  GI50: 1.77 µM
  LC50: > 32.5 µM
  TGI: > 32.5 µM
HOP-62
  growth at 10 µM: 53%
HOP-92
  growth at 10 µM: 22.5%
A498
  GI50: 2.7 µM
  IC50: 2.7 µM
  TGI: 22.7 µM
  CC50: > 32.5 µM
Malme-3M
  growth at 10 µM: 16.8%
NCI-H23 [4]
  growth at 10 µM: 58.9%
NCI-H522
  GI50: 1.04 µM
  LC50 (concentration killing 50% of cells): > 32.5 µM
  TGI: 13.4 µM
UACC-257
  GI50: 7.13 µM
  TGI: > 32.5 µM
  CC50: > 32.5 µM
OVCAR-8
  GI50: 3.35 µM
  TGI: > 32.5 µM
  CC50: > 32.5 µM
CAKI-1 [5]
  GI50: 2.3 µM
  TGI: > 32.5 µM
  CC50: > 32.5 µM
HT-29 [6]
  growth at 10 µM: 50.1%
KM12 [7]
  growth at 10 µM: 28.8%
HT-29 [8]
  GI50: 3.38 µM
  TGI: > 32.5 µM
  CC50: > 32.5 µM
BT-549
  growth at 10 µM: 49.7%
MCF7
  GI50: 2.24 µM
  LC50: > 32.5 µM
  TGI: > 32.5 µM
OVCAR-5
  GI50: > 32.5 µM
  LC50 (concentration killing 50% of cells): > 32.5 µM
  TGI: > 32.5 µM
TK-10
  growth at 10 µM: 69.5%
NCI-H23 [9]
  GI50: 5.39 µM
  LC50: > 32.5 µM
  TGI: > 32.5 µM
SK-MEL-5 [10]
  GI50: 1.38 µM
  LC50 (concentration killing 50% of cells): 31.8 µM
  TGI: 6.87 µM
U-251 [11]
  GI50: 3.1 µM
  LC50 (concentration killing 50% of cells): > 32.5 µM
  TGI: > 32.5 µM
OVCAR-4
  GI50: 8.04 µM
  LC50 (concentration killing 50% of cells): > 32.5 µM
  TGI: > 32.5 µM
SW-620 [12]
  growth at 10 µM: 36.1%
U-251 [13]
  growth at 10 µM: 32.5%
SW-620 [14]
  GI50: 4.75 µM
  TGI: > 32.5 µM
  CC50: > 32.5 µM
